Consider 3 molecules from patent publication US11208412B2 (DAEGU-GYEONGBUK MEDICAL INNOVATION FOUNDATION, priority 2017, dated 2021).

What all share (assay): Kinase selectivity, DiscoverX scanMAX Kinase assay panel (% control)
Holding throughout (type): binding

For assay [1], the target named is T1, kinases of the scanMAX Kinase assay panel (Homo sapiens, UniProt O60331).
T1 construct: purchased DiscoverX Co. (contract measurement) scanMAX Kinase assay panel
The conditions noted are these: PIP5K1C; 1 uM. The gist of the method:
(§1)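 A 1 uM DMSO solution of compound was applied across the panel kinases, and results were expressed as % control relative to DMSO (100%) and a positive control (0%).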

Assay [2] deals with T2, kinases of the scanMAX Kinase assay panel (Homo sapiens, UniProt P00533, G719S).
T2 construct: purchased DiscoverX Co. (contract measurement) scanMAX Kinase assay panel
Conditions: EGFR(G719S); 1 uM. Put shortly:
as §1

Assay [3] concerns the target T3, kinases of the scanMAX Kinase assay panel (Homo sapiens, UniProt P07949, M918T).
T3 construct: purchased DiscoverX Co. (contract measurement) scanMAX Kinase assay panel
The conditions noted are these: kinase RET(M918T); 1 uM in DMSO. Put shortly: as §1

Assay [4] concerns the target T4, kinases of the scanMAX Kinase assay panel (Homo sapiens, UniProt P08581, Y1235D).
T4 construct: purchased DiscoverX Co. (contract measurement) scanMAX Kinase assay panel
The conditions noted are these: MET(Y1235D); 1 uM. Put shortly: as §1

For assay [5], the target named is T5, kinases of the scanMAX Kinase assay panel (Homo sapiens, UniProt P10721, D816V).
T5 construct: purchased DiscoverX Co. (contract measurement) scanMAX Kinase assay panel
Conditions: KIT(D816V); 1 uM. The gist of the method: as §1

The target of assay [6] is T6, kinases of the scanMAX Kinase assay panel (Homo sapiens, UniProt P28482).
T6 construct: purchased DiscoverX Co. (contract measurement) scanMAX Kinase assay panel
Conditions: ERK2; 1 uM. Put shortly: as §1

Assay [7] has as its target T7, kinases of the scanMAX Kinase assay panel (Homo sapiens, UniProt P51955).
T7 construct: purchased DiscoverX Co. (contract measurement) scanMAX Kinase assay panel
T7 sequence (P51955 1-445): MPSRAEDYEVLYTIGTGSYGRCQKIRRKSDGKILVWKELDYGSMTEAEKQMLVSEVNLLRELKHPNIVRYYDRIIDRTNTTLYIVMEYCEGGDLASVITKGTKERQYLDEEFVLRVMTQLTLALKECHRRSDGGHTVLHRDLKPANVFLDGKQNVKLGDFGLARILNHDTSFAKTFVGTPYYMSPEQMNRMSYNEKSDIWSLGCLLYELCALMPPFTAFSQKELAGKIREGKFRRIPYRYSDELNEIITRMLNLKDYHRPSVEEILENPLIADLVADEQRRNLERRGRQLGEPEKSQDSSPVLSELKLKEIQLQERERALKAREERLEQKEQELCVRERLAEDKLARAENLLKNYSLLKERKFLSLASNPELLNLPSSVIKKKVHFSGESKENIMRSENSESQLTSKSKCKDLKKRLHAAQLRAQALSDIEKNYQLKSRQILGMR
Conditions: NEK2; 1 uM. The gist of the method:
as §1

Assay [8] deals with T8, kinases of the scanMAX Kinase assay panel (Homo sapiens, UniProt P78362).
T8 construct: purchased DiscoverX Co. (contract measurement) scanMAX Kinase assay panel
Conditions: kinase SRPK2; 1 uM in DMSO. The gist of the method: as §1

Assay [9] has as its target T9, kinases of the scanMAX Kinase assay panel (Homo sapiens, UniProt Q13976).
T9 construct: purchased DiscoverX Co. (contract measurement) scanMAX Kinase assay panel
T9 sequence (Q13976 1-671): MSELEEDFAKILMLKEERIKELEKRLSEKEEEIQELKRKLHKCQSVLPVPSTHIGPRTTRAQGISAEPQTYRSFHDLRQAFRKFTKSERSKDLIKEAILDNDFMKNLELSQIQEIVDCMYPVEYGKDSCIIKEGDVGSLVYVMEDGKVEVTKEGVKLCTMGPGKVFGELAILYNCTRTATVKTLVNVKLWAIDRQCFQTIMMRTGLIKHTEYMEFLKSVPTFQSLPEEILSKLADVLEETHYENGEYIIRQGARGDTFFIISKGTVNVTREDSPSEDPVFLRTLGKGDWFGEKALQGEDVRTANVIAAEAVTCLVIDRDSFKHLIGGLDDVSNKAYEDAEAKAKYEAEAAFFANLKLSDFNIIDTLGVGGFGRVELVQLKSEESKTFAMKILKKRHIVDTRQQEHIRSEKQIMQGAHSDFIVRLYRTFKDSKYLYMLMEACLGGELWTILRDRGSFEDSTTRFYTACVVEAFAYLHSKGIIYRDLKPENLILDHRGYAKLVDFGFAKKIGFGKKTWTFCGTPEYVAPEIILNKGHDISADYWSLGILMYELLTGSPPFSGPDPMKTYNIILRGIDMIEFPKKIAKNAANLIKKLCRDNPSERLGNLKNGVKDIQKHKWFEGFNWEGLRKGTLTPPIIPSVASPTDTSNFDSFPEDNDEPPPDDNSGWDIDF
Conditions: PRKG1; 1 uM. Put shortly: as §1

Assay [10] concerns the target T10, kinases of the scanMAX Kinase assay panel (Homo sapiens, UniProt Q14004).
T10 construct: purchased DiscoverX Co. (contract measurement) scanMAX Kinase assay panel
Conditions: CDC2L5; 1 uM. The gist of the method:
as §1

Assay [11] deals with T11, kinases of the scanMAX Kinase assay panel (Homo sapiens, UniProt Q6PHR2).
T11 construct: purchased DiscoverX Co. (contract measurement) scanMAX Kinase assay panel
T11 sequence (Q6PHR2 1-472): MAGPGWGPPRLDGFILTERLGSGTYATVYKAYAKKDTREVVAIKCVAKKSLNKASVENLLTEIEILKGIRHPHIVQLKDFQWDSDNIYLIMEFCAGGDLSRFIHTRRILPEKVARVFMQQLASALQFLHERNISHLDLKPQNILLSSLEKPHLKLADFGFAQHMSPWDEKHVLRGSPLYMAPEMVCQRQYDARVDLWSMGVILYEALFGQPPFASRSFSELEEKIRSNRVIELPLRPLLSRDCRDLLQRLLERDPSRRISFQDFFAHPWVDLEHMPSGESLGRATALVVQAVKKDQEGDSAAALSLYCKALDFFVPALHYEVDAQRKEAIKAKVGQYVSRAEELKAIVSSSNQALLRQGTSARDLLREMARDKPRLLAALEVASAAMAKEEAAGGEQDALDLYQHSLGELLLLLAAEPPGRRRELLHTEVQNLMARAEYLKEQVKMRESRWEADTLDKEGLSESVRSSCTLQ
The conditions noted are these: kinase ULK3; 1 uM in DMSO. Put shortly:
as §1

T3 sequence (P07949 29-1114 M918T): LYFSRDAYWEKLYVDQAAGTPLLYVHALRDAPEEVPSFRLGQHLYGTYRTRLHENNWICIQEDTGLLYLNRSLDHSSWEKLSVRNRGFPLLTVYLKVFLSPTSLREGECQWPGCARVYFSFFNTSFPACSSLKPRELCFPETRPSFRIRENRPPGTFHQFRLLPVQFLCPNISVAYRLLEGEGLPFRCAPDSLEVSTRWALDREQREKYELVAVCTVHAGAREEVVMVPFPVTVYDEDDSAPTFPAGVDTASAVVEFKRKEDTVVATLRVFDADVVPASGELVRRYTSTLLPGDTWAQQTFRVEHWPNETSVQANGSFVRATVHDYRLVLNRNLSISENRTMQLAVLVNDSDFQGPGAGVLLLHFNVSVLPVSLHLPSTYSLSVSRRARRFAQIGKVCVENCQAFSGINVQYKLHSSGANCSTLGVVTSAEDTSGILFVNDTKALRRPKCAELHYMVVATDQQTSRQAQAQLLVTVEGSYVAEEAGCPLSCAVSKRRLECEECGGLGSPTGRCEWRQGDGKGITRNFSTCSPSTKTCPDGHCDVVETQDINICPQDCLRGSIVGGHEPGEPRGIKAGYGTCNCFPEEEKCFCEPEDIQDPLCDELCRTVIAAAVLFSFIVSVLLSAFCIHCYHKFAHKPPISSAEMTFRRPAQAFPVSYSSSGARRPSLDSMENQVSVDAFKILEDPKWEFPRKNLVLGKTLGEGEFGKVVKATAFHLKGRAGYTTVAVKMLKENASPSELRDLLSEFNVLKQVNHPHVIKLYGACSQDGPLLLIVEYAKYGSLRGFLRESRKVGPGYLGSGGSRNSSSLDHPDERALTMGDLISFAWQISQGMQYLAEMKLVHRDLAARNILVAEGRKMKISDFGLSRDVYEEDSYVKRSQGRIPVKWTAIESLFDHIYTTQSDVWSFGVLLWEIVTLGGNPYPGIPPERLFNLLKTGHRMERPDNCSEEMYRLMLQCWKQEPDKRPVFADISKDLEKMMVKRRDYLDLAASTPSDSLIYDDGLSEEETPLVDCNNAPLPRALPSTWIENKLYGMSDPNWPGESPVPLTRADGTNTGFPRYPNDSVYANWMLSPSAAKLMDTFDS
T1 sequence (O60331 whole entry): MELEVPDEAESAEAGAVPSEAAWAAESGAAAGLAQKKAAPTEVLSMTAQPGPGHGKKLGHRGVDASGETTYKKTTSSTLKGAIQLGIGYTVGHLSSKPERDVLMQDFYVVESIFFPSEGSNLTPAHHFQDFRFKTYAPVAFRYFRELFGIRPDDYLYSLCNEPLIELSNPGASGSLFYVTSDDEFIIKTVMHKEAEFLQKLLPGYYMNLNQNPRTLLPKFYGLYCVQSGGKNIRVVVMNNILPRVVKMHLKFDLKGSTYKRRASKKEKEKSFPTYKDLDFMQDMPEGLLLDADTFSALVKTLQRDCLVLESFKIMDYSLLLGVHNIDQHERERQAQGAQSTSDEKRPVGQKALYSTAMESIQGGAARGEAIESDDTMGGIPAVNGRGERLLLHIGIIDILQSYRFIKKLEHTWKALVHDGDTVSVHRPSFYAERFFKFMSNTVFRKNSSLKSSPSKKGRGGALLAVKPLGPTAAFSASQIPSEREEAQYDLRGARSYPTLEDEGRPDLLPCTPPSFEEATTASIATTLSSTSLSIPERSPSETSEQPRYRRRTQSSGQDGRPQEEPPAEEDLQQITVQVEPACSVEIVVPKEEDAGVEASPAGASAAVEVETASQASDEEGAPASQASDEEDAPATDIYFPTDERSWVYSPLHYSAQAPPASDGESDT
T5 sequence (P10721 26-976 D816V): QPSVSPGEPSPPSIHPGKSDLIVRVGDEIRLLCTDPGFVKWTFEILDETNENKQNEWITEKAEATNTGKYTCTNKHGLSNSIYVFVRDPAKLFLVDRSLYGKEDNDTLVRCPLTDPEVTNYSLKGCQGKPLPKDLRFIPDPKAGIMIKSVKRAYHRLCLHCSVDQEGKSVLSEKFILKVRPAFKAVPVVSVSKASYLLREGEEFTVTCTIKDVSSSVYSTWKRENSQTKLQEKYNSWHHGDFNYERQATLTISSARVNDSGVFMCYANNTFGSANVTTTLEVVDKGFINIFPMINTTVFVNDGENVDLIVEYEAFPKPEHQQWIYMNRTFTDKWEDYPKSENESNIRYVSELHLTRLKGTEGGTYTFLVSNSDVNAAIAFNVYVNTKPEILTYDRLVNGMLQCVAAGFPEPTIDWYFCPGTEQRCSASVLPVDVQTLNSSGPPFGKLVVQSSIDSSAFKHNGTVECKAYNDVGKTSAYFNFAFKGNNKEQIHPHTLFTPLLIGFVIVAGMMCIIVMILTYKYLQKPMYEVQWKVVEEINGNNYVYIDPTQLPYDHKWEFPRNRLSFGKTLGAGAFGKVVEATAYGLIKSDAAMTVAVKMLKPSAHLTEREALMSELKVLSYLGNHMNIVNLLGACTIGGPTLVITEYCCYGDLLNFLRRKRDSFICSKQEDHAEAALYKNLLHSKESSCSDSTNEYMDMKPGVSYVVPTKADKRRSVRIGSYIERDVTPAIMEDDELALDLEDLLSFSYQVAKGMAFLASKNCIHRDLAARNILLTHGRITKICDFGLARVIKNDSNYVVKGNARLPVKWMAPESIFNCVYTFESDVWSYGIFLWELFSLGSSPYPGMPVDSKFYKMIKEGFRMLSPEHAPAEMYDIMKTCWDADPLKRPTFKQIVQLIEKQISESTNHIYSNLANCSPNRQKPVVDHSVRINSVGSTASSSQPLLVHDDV
T8 sequence (P78362 whole entry): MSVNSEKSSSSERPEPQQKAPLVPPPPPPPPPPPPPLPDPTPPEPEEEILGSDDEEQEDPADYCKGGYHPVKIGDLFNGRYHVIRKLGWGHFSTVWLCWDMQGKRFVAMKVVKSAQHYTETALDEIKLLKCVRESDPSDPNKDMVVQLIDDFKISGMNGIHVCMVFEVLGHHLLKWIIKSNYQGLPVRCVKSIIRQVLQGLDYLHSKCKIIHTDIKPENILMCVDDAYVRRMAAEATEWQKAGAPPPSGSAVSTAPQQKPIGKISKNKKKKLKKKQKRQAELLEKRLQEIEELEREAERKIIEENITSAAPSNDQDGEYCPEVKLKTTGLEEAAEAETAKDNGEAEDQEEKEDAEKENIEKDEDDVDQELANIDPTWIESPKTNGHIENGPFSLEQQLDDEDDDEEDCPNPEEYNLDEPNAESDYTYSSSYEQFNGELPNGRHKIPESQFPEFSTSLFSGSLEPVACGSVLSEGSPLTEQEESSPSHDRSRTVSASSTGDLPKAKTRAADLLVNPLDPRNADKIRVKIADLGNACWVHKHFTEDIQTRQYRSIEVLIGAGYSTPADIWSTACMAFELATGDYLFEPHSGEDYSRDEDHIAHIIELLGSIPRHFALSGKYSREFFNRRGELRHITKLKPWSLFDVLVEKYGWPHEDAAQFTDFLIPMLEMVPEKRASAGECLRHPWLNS
T10 sequence (Q14004 whole entry): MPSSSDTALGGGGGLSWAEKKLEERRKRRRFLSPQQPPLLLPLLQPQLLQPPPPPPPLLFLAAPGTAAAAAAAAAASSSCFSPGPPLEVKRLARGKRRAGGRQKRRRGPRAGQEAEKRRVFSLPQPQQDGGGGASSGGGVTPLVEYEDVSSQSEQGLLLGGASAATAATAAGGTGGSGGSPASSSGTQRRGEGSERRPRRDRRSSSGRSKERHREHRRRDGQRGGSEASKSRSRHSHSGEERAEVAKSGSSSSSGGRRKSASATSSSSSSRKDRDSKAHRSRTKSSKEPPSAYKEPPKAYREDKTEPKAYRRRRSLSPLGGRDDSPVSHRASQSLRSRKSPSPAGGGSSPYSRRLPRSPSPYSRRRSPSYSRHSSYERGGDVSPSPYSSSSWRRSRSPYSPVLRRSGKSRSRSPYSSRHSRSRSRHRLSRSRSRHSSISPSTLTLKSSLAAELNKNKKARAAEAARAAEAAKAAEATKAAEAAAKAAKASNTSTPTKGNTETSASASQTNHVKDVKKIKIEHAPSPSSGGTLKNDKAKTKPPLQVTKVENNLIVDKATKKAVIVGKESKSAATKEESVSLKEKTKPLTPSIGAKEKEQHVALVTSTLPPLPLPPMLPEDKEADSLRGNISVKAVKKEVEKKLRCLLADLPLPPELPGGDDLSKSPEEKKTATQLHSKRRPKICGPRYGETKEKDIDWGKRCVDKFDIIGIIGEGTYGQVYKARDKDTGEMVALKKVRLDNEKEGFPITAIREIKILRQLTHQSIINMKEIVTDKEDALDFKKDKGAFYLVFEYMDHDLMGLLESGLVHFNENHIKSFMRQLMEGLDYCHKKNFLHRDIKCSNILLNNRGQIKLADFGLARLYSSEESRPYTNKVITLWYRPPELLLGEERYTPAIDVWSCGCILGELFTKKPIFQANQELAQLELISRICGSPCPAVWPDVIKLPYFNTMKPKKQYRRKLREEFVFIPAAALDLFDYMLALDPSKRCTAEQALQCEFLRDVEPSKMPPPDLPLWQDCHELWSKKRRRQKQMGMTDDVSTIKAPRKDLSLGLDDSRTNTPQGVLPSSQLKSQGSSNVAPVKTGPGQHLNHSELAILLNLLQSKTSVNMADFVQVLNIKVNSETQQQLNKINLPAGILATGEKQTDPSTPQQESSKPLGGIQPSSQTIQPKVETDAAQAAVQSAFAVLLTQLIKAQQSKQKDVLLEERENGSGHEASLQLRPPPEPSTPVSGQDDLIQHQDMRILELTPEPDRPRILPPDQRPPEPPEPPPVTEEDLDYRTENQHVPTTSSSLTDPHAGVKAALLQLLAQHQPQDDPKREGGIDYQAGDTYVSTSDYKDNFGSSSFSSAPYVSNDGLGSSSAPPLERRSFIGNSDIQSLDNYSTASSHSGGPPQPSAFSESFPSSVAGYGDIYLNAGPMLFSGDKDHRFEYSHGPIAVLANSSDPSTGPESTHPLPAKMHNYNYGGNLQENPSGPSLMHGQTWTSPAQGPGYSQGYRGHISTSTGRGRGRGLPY

On to `CC1(Nc2nc(Nc3cnn([C@H]4CCN(C5COC5)C[C@@H]4F)c3Cl)nc3[nH]cc(C#N)c23)CC1` [Example 52, 2-((5-chloro-1-((3S,4S)-3-fluoro-1-(oxetane-3-yl)piperidine-4-yl)-1H-pyrazole-4-yl)amino)((1-methylcyclopropyl)amino)-7H-pyrrolo[2,3-d]pyrimidine-5-carbonitrile], for which the remaining binding at 1 µM in assay [1] was 0%; in assay [2], 57%; in assay [3], 0%; in [4], 31%; in assay [5], 0.15%; in assay [6], 54%. For the same molecule, the remaining binding at 1 µM in assay [7] was determined as 70%; in [8], 58%; in assay [9], 79%; in [10] it was 97%; in [11], 0.2%.
On to `CCNc1nc(Nc2ccc(C(=O)N3CCC(N4CCOCC4)CC3)cc2OC)nc2[nH]cc(C(F)(F)F)c12` [Example 104, (4-((4-(ethylamino)-5-(trifluoromethyl)-7H-pyrrolo[2,3-d]pyrimidine-2-yl)amino)-3-methoxyphenyl)(4-morpholinopiperidine-1-yl)methanone], for which the remaining binding at 1 µM came to 100% in assay [1]; 100% in assay [2]; 96% in [3]; 100% in assay [4]; 99% in assay [5]; 100% in assay [6]. The remaining binding at 1 µM in assay [7] was determined as 74%; in assay [8] it was 74%; in assay [9], 84%; in [10] it was 100%; in assay [11], 100%.
Take `CNc1nc(Nc2ccc(C(=O)N3CCOCC3)cc2OC)nc2[nH]cc(C#N)c12` [Example 1, 2-((2-methoxy-4-(morpholine-4-carbonyl)phenyl)amino)-4-(methylamino)-7H-pyrrolo[2,3-d]pyrimidine-5-carbonitrile]: the remaining binding at 1 µM in assay [1] was determined as 1%; in [2], 82%; in assay [3], 94%; in [4], 82%; in [5] it was 89%; in assay [6], 86%. The remaining binding at 1 µM turned out to be 97% in assay [7]; 100% in [8]; 83% in assay [9]; 82% in assay [10]; 62% in assay [11].
